Patent US7981903B2, “2-[2-{phenylamino}-1H-pyrrolo[2,3-D]pyrimidin-4-yl)amino] benzamide derivatives as IGF-1R inhibitors for the treatment of cancer” (GlaxoSmithKline LLC, priority 2007, dated 2011)

Assays:
human IGF1R (hIGF1R) = target: T1, human IGF1R (hIGF1R) (Homo sapiens, UniProt P08069); test: TR-FRET kinase assay of purified hIGF1R; type: biochemical; conditions: activated hIGF1R 0.5 nM, 10 μM ATP, values given as pIC50 category, read-out: IGF-1R pIC50 (converted)
T1 construct: containing amino acid residues 957-1367 of human IGF1R; made in house; host or cells: Sf9 cells (baculovirus)

human IR (hIR) = target: T2, human IR (hIR) (Homo sapiens, UniProt P06213); test: TR-FRET kinase assay of purified hIR; type: biochemical; conditions: activated hIR 0.5 nM, 10 μM ATP, values given as pIC50 category
T2 construct: containing amino acid residues 979-1382 of human IR; made in house; host or cells: Sf9 cells (baculovirus), same process as hIGF1R

Colo205 = test: Inhibition of cell proliferation (CellTiter-Glo or InCell analyzer), Colo205; type: cell-based; conditions: Homo sapiens, COLO 205, 72 h / 3 days, values given as IC50 category
Procedure, shortened: In one

NCI-H929 = test: Inhibition of cell proliferation (CellTiter-Glo or InCell analyzer), NCI-H929; type: cell-based; conditions: Homo sapiens, 72 h / 3 days, values given as IC50 category
Procedure, shortened: In one

T1 sequence (P08069 957-1367): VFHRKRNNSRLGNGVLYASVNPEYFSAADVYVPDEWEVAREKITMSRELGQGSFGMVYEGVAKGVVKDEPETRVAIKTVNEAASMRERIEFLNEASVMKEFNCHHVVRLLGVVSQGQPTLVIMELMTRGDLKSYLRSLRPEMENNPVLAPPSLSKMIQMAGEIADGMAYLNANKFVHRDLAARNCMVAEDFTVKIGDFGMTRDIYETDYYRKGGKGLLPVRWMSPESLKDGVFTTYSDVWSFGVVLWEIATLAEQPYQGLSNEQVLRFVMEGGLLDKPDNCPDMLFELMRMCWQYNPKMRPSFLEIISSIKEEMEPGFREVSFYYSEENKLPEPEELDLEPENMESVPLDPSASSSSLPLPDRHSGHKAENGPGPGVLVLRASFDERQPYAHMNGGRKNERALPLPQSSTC
T2 sequence (P06213 979-1382): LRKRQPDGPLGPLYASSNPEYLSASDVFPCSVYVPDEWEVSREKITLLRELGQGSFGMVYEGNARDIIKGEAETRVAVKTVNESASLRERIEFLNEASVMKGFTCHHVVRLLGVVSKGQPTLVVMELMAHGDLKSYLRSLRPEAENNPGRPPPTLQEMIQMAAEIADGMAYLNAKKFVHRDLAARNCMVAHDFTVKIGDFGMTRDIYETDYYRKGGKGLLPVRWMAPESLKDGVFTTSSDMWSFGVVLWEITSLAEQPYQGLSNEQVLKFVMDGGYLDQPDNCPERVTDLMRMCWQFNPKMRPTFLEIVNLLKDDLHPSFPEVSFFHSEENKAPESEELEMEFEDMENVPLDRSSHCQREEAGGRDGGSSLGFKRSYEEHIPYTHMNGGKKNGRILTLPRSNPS

| IC50 (human IGF1R (hIGF1R)) | IC50 (human IR (hIR)) | IC50 (Colo205) | IC50 (NCI-H929) | Compound |
| --- | --- | --- | --- | --- |
| 0.251 to 1 nM | 0.251 to 1 nM | < 250 nM | < 250 nM | CCCN1CCC=C(c2ccc(Nc3nc(Nc4ccccc4C(N)=O)c4cc[nH]c4n3)c(OC)c2)C1 [Example 2, 2-[(2-{[2-(methyloxy)-4-(1-propyl-1,2,5,6-tetrahydro-3-pyridinyl)phenyl]amino}-1H-pyrrolo[2,3-d]pyrimidin-4-yl)amino]benzamide] |
| 0.251 to 1 nM | 0.251 to 1 nM | < 250 nM |  | CCCN1CCCC(c2ccc(Nc3nc(Nc4ccccc4C(N)=O)c4cc[nH]c4n3)c(OC)c2)C1 (centres unmarked) [Example 3, 2-[(2-{[2-(methyloxy)-4-(1-propyl-3-piperidinyl)phenyl]amino}-1H-pyrrolo[2,3-d]pyrimidin-4-yl)amino]benzamide] |
| 0.251 to 1 nM | 0.251 to 1 nM | < 250 nM | < 250 nM | COc1cc(N2CCN(C(C)C)CC2)ccc1Nc1nc(Nc2ccccc2C(N)=O)c2cc[nH]c2n1 [Example 7, 2-[(2-{[4-[4-(1-methylethyl)-1-piperazinyl]-2-(methyloxy)phenyl]amino}-1H-pyrrolo[2,3-d]pyrimidin-4-yl)amino]benzamide] |
| 0.251 to 1 nM | 0.251 to 1 nM | < 250 nM |  | COc1ccc(NC(=O)CN(C)C)cc1Nc1nc(Nc2ccccc2C(N)=O)c2cc[nH]c2n1 [Example 15, 2-[(2-{[5-[(N,N-dimethylglycyl)amino]-2-(methyloxy)phenyl]amino}-1H-pyrrolo[2,3-d]pyrimidin-4-yl)amino]benzamide] |
| 0.251 to 1 nM | 0.251 to 1 nM | 250 to 1000 nM |  | CN(C)CC(=O)Nc1ccc(OC(F)(F)F)c(Nc2nc(Nc3ccccc3C(N)=O)c3cc[nH]c3n2)c1 [Example 16, 2-{[2-({5-[(N,N-dimethylglycyl)amino]-2-[(trifluoromethyl)oxy]phenyl}amino)-1H-pyrrolo[2,3-d]pyrimidin-4-yl]amino}benzamide] |
| 0.251 to 1 nM | 0.251 to 1 nM | < 250 nM |  | CN(C)CC(=O)Nc1ccc(F)c(Nc2nc(Nc3ccccc3C(N)=O)c3cc[nH]c3n2)c1 [Example 17, 2-{[2-({5-[(N,N-dimethylglycyl)amino]-2-fluorophenyl}amino)-1H-pyrrolo[2,3-d]pyrimidin-4-yl]amino}benzamide] |
| 5.01 to 200 nM | 1.26 to 3.98 nM | 250 to 1000 nM |  | COc1ccc(C(N)=O)c(Nc2nc(Nc3ccc(N4CCOC[C@@H]4C)cc3OC)nc3[nH]ccc23)c1 [Example 39, 2-[(2-{[4-[(3S)-3-methyl-4-morpholinyl]-2-(methyloxy)phenyl]amino}-1H-pyrrolo[2,3-d]pyrimidin-4-yl)amino]-4-(methyloxy)benzamide] |
| 0.251 to 1 nM |  | < 250 nM | < 250 nM | COc1cc2c(cc1Nc1nc(Nc3cccc(F)c3C(N)=O)c3cc[nH]c3n1)N(C(=O)CN(C)C)CC2 [Example 53, 2-[(2-{[1-(N,N-dimethylglycyl)-5-(methyloxy)-2,3-dihydro-1H-indol-6-yl]amino}-1H-pyrrolo[2,3-d]pyrimidin-4-yl)amino]-6-fluorobenzamide] |
| 0.251 to 1 nM | 0.251 to 1 nM | < 250 nM |  | CCCN1CCC=C(c2ccc(Nc3nc(Nc4ccc(F)cc4C(N)=O)c4cc[nH]c4n3)c(OC)c2)C1 [Example 54, 5-fluoro-2-[(2-{[2-(methyloxy)-4-(1-propyl-1,2,5,6-tetrahydro-3-pyridinyl)phenyl]amino}-1H-pyrrolo[2,3-d]pyrimidin-4-yl)amino]benzamide] |
| 0.251 to 1 nM | 0.251 to 1 nM | < 250 nM | < 250 nM | COc1cc(C2CCN(C(C)C)CC2)ccc1Nc1nc(Nc2ccc(F)cc2C(N)=O)c2cc[nH]c2n1 [Example 58, 5-fluoro-2-[(2-{[4-[1-(1-methylethyl)-4-piperidinyl]-2-(methyloxy)phenyl]amino}-1H-pyrrolo[2,3-d]pyrimidin-4-yl)amino]benzamide] |
| 0.251 to 1 nM | 1.26 to 3.98 nM | 250 to 1000 nM |  | COc1cc(N2CCC(N3CCOCC3)CC2)ccc1Nc1nc(Nc2cc(F)ccc2C(N)=O)c2cc[nH]c2n1 [Example 78, 4-fluoro-2-{[2-({2-(methyloxy)-4-[4-(4-morpholinyl)-1-piperidinyl]phenyl}amino)-1H-pyrrolo[2,3-d]pyrimidin-4-yl]amino}benzamide] |
| 0.251 to 1 nM | 0.251 to 1 nM | < 250 nM |  | COc1cc(N2CCOC[C@@H]2C)ccc1Nc1nc(Nc2cc(F)ccc2C(N)=O)c2cc[nH]c2n1 [Example 84, 4-fluoro-2-[(2-{[4-[(3S)-3-methyl-4-morpholinyl]-2-(methyloxy)phenyl]amino}-1H-pyrrolo[2,3-d]pyrimidin-4-yl)amino]benzamide] |
| 0.251 to 1 nM | 0.251 to 1 nM | < 250 nM |  | COc1ccc(OC[C@@H](O)CN(C)C)cc1Nc1nc(Nc2cc(F)ccc2C(N)=O)c2cc[nH]c2n1 [Example 86, 2-[(2-{[5-{[(2S)-3-(dimethylamino)-2-hydroxypropyl]oxy}-2-(methyloxy)phenyl]amino}-1H-pyrrolo[2,3-d]pyrimidin-4-yl)amino]-4-fluorobenzamide] |
| 0.251 to 1 nM | 0.251 to 1 nM | 250 to 1000 nM | < 250 nM | COc1cc(N2CCN(C(C)C)CC2)ccc1Nc1nc(Nc2cc(F)cc(F)c2C(N)=O)c2cc[nH]c2n1 [Example 89, 2,4-difluoro-6-[(2-{[4-[4-(1-methylethyl)-1-piperazinyl]-2-(methyloxy)phenyl]amino}-1H-pyrrolo[2,3-d]pyrimidin-4-yl)amino]benzamide] |
| 0.251 to 1 nM | 1.26 to 3.98 nM | < 250 nM | < 250 nM | COc1cc(N2CCN(C(C)C)CC2)c(C)cc1Nc1nc(Nc2cc(F)cc(F)c2C(N)=O)c2cc[nH]c2n1 [Example 91, 2,4-difluoro-6-[(2-{[5-methyl-4-[4-(1-methylethyl)-1-piperazinyl]-2-(methyloxy)phenyl]amino}-1H-pyrrolo[2,3-d]pyrimidin-4-yl)amino]benzamide] |
| 0.251 to 1 nM | 0.251 to 1 nM | < 250 nM | < 250 nM | CCCN1CCC(c2ccc(Nc3nc(Nc4cc(F)cc(F)c4C(N)=O)c4cc[nH]c4n3)c(OC)c2)CC1 [Example 92, 2,4-difluoro-6-[(2-{[2-(methyloxy)-4-(1-propyl-4-piperidinyl)phenyl]amino}-1H-pyrrolo[2,3-d]pyrimidin-4-yl)amino]benzamide] |
| 0.251 to 1 nM | 0.251 to 1 nM | 250 to 1000 nM |  | COc1ccc(OC[C@@H](O)CN2CCCC2)cc1Nc1nc(Nc2cc(F)c(F)cc2C(N)=O)c2cc[nH]c2n1 [Example 107, 4,5-difluoro-2-[(2-{[5-{[(2S)-2-hydroxy-3-(1-pyrrolidinyl)propyl]oxy}-2-(methyloxy)phenyl]amino}-1H-pyrrolo[2,3-d]pyrimidin-4-yl)amino]benzamide] |
| 5.01 to 200 nM | 5.01 to 158 nM | > 1000 nM | 250 to 1000 nM | COc1cc2c(cc1Nc1nc(Nc3cccc(F)c3C(N)=O)c3cc[nH]c3n1)N(CCN(C)C)CC2 [Example 117, 2-[(2-{[1-[2-(dimethylamino)ethyl]-5-(methyloxy)-2,3-dihydro-1H-indol-6-yl]amino}-1H-pyrrolo[2,3-d]pyrimidin-4-yl)amino]-6-fluorobenzamide] |
| 5.01 to 200 nM | 5.01 to 158 nM | 250 to 1000 nM | < 250 nM | COc1cc2c(cc1Nc1nc(Nc3cccc(F)c3C(N)=O)c3cc[nH]c3n1)N(C(=O)CCN(C)C)CC2 [Example 118, 2-[(2-{[1-(N,N-dimethyl-b-alanyl)-5-(methyloxy)-2,3-dihydro-1H-indol-6-yl]amino}-1H-pyrrolo[2,3-d]pyrimidin-4-yl)amino]-6-fluorobenzamide] |
| 0.251 to 1 nM | 0.251 to 1 nM | 250 to 1000 nM | < 250 nM | COc1cc2c(cc1Nc1nc(Nc3cc(Cl)cc(F)c3C(N)=O)c3cc[nH]c3n1)N(C(=O)CN(C)C)CC2 [Example 119, 4-chloro-2-[(2-{[1-(N,N-dimethylglycyl)-5-(methyloxy)-2,3-dihydro-1H-indol-6-yl]amino}-1H-pyrrolo[2,3-d]pyrimidin-4-yl)amino]-6-fluorobenzamide] |
| 5.01 to 200 nM | 1.26 to 3.98 nM | 250 to 1000 nM | < 250 nM | COc1cc2c(cc1Nc1nc(Nc3cccc(F)c3C(N)=O)c3cc[nH]c3n1)CN(C)CC2 [Example 121, 2-fluoro-6-[(2-{[2-methyl-6-(methyloxy)-1,2,3,4-tetrahydro-7-isoquinolinyl]amino}-1H-pyrrolo[2,3-d]pyrimidin-4-yl)amino]benzamide] |
| 5.01 to 200 nM | 1.26 to 3.98 nM | > 1000 nM | < 250 nM | CCCN1CCC(N2CCc3cc(OC)c(Nc4nc(Nc5cccc(F)c5C(N)=O)c5cc[nH]c5n4)cc3C2)CC1 [Example 122, 2-fluoro-6-[(2-{[6-(methyloxy)-2-(1-propyl-4-piperidinyl)-1,2,3,4-tetrahydro-7-isoquinolinyl]amino}-1H-pyrrolo[2,3-d]pyrimidin-4-yl)amino]benzamide] |
| 5.01 to 200 nM |  | > 1000 nM | > 1000 nM | COc1cc2c(cc1Nc1nc(Nc3cc(F)cc(F)c3C(N)=O)c3cc[nH]c3n1)NCCC2 [Example 220, 2,4-difluoro-6-[(2-{[6-(methyloxy)-1,2,3,4-tetrahydro-7-quinolinyl]amino}-1H-pyrrolo[2,3-d]pyrimidin-4-yl)amino]benzamide] |
| 5.01 to 200 nM |  | > 1000 nM | 250 to 1000 nM | CNC(=O)c1c(F)cccc1Nc1nc(Nc2cc3c(cc2OC)CCC(=O)N3)nc2[nH]ccc12 [Example 222, 2-fluoro-N-methyl-6-[(2-{[6-(methyloxy)-2-oxo-1,2,3,4-tetrahydro-7-quinolinyl]amino}-1H-pyrrolo[2,3-d]pyrimidin-4-yl)amino]benzamide] |
